Test results reported in article PMC7413254 (Nature Communications, 2020).
Read-outs that look alike come from different tables or passages of the source.

Columns and labels:
[1] = test system: PfCRT; assay: Test of solutes as potential co-substrates for influx of VF-6 via PfCRT into the oocyte; format: cell-based, Plasmodium falciparum; design: key: X: Compounds that have been tested as potential co-substrates but are not required for influx of VF-6 via PfCRT into the oocyte; conditions: X = tested
[2] = test system: non-expressing oocytes; format: cell-based, Xenopus laevis; conditions: total [3H]CQ transport; for Uptake of [3H]CQ (% non-expressing oocyte control), trans-stimulation: non-expressing oocytes, normalised to the oocyte type control; for Uptake of [3H]CQ (% PfCRTDd2 control), trans-stimulation, non-expressing oocytes: mean ± SEM, SEM
In short: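 Oocytes (ten per treatment, ≥4 independent frogs/days) were preloaded by injecting VF-6 in 25 nL ND96 at pH 5.0, 5.5, 6.0 or 7.0, or Na^+-free choline buffer, then uptake run 1.5 h, 27.5 °C, ND96 pH 5.5 by default. Internal concentrations assumed ~400 nL oocyte volume.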

[3] = test system: PfCRT; assay: Potential co-substrates tested for influx of VF-6 via PfCRT into the oocyte; format: cell-based, Plasmodium falciparum; design: key: X: Compounds that have been tested as potential co-substrates but are not required for influx of VF-6 via PfCRT into the oocyte
[4] = biological target: T1, PfNT1 (Plasmodium falciparum, UniProt Q8IDM6); assay: cell-based; format: cell-based; conditions: for activity at 5000 µM: total [3H]CQ transport
T1 construct: expressed in transfected cells; host or cells: Xenopus laevis oocytes (stage V-VI), cRNA-injected
T1 sequence (Q8IDM6 whole entry): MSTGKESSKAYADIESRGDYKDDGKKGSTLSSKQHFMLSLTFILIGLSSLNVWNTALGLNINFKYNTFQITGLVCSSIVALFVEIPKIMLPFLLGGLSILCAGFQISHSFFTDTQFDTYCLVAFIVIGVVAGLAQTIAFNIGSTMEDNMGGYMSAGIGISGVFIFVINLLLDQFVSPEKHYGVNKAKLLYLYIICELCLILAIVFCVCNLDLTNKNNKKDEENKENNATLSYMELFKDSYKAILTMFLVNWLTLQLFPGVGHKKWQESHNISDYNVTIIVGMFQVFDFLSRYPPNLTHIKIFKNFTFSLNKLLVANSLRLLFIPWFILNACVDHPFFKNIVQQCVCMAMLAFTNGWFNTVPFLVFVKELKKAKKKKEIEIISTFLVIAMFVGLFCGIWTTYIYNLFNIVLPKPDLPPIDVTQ
In short: (§1)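 Transport measured in Xenopus oocytes expressing the transporters, 1.5 h at 27.5 °C in ND96 pH 5.5 unless noted. For trans-stimulation, VF-6 injected in 25 nL ND96 at pH 5.0–7.0 or Na^+-free (choline) buffer; intracellular levels based on ~400 nL oocyte volume. Ten oocytes per treatment, ≥4 experiments.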

[5] = biological target: PfCRT^3D7 (Plasmodium falciparum, UniProt Q8IBZ9); assay: cell-based; format: cell-based
Sequence of PfCRT^3D7 (Q8IBZ9 59-398): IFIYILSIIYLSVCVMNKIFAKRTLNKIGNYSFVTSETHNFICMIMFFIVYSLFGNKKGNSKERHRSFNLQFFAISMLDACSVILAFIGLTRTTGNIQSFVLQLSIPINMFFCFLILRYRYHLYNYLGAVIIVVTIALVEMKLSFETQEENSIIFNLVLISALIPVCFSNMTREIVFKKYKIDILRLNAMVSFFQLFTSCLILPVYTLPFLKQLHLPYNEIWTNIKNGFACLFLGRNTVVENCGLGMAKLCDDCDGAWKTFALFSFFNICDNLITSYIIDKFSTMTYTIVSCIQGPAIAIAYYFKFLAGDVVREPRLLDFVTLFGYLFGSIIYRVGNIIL
In short: as §1

[6] = biological target: PfCRT^Ecu1110 (Plasmodium falciparum, UniProt Q9N623, A220S/I356L/K76T/N326D); assay: cell-based; format: cell-based; conditions: […]
Sequence of PfCRT^Ecu1110 (Q9N623 whole entry A220S/I356L/K76T/N326D): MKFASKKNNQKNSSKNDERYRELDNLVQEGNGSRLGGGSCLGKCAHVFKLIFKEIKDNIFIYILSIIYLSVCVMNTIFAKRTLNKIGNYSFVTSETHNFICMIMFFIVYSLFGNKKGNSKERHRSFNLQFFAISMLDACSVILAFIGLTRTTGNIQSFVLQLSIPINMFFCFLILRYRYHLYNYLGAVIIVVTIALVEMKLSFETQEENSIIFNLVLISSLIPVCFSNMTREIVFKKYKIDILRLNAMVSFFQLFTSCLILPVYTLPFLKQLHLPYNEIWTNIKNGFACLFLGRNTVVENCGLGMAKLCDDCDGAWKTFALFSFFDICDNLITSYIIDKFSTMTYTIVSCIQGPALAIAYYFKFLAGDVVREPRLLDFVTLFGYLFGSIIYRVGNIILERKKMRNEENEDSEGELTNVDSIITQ
In short: as §1

[7] = biological target: PfCRT^Dd2 (Plasmodium falciparum, UniProt Q9N623, A220S/I356T/K76T/M74I/N326S/N75E/Q271E/R371I); assay: cell-based; format: cell-based; conditions: […]; for activity at 45000 µM: [test solute]i = 45 mM (30 mM for some solutes due to solubility)
Sequence of PfCRT^Dd2 (Q9N623 whole entry A220S/I356T/K76T/M74I/N326S/N75E/Q271E/R371I): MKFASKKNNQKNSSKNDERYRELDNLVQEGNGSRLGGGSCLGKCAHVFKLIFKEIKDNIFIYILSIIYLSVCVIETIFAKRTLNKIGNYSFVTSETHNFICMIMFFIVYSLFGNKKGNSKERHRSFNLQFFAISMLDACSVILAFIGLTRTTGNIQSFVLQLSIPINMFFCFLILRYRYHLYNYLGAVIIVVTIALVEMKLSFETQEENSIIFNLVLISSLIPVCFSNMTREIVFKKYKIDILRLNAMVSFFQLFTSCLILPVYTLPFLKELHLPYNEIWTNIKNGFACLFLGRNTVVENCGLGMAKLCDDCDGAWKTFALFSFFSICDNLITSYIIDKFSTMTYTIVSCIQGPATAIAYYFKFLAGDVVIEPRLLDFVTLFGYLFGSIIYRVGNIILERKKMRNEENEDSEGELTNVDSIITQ
In short: as §1

[8] = test system: non-expressing oocytes; assay: cells; format: cell-based, Xenopus laevis; conditions: Xenopus laevis, Oocyte, total [3H]CQ transport, mean ± SEM, SEM, read-out: Uptake of [3H]CQ (% PfCRTDd2 control), cis-inhibition, non-expressing oocytes
In short: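 Washed oocytes (ten per treatment) were exposed to label in pH 5.5 ND96 for 1.5 h at 27.5 °C. Buffer was then removed, cells rinsed in ice-cold ND96, lysed in SDS and counted.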

Question: What does the source list for `N[C@@H](CS)C(=O)O` [L-cysteine]?
Answer: Tested as potential co-substrate but not required for influx of VF-6 via PfCRT into the oocyte [1]: X; Uptake of [3H]CQ (% non-expressing oocyte control), trans-stimulation ([2]; [test solute]i = 5 mM): 98 ± 2.2 % non-expressing oocyte control; Uptake of [3H]CQ (% non-expressing oocyte control), trans-stimulation ([2]; [test solute]i = 45 mM (30 mM for some solutes due to solubility)): 100 ± 4.2 % non-expressing oocyte control; Uptake of [3H]CQ (% PfCRTDd2 control), trans-stimulation, non-expressing oocytes ([2]; [test solute]i = 5 mM (intracellular)): 3.1 ± 0.07 % PfCRTDd2 control; Uptake of [3H]CQ (% PfCRTDd2 control), trans-stimulation, non-expressing oocytes ([2]; [test solute]i = 45 mM (intracellular; 30 mM for some solutes due to solubility)): 2.2 ± 0.03 % PfCRTDd2 control; Tested as potential co-substrate but not required for influx of VF-6 via PfCRT into the oocyte [3]: X; activity at 5000 µM ([4]; PfNT1 oocytes, [test solute]i = 5 mM, normalised to the oocyte type control, read-out: Uptake of [3H]CQ (% PfNT1 control), trans-stimulation): 98 ± 3.7%; activity at 45000 µM ([4]; SEM, read-out: Uptake of [3H]CQ (% PfCRTDd2 control), trans-stimulation, PfNT1): 2.6 ± 0.05%; activity at 45000 µM ([4]; read-out: Uptake of [3H]CQ (% PfNT1 control), trans-stimulation): 99 ± 3.2%; activity at 5000 µM ([4]; [test solute]i = 5 mM (intracellular), mean ± SEM, SEM, read-out: Uptake of [3H]CQ (% PfCRTDd2 control), trans-stimulation, PfNT1): 2.6 ± 0.08%; activity at 5000 µM ([5]; PfCRT3D7 oocytes, [test solute]i = 5 mM, total [3H]CQ transport, normalised to the oocyte type control, read-out: Uptake of [3H]CQ (% PfCRT3D7 control), trans-stimulation): 100 ± 2.4%; [3H]CQ transport (% PfCRT3D7 control), trans-stimulation, PfCRT3D7 ([5]; SEM): 0.3 ± 0.02 % PfCRT3D7 control; activity at 5000 µM ([5]; [test solute]i = 5 mM (intracellular), PfCRT3D7 oocytes, normalised to oocyte type control, read-out: PfCRT-mediated [3H]CQ transport, trans-stimulation (% PfCRT3D7 control)): 98 ± 3.1%; activity at 45000 µM ([5]; SEM, read-out: Uptake of [3H]CQ (% PfCRTDd2 control), trans-stimulation, PfCRT3D7): 3.2 ± 0.08%; activity at 45000 µM ([5]; read-out: PfCRT-mediated [3H]CQ transport, trans-stimulation (% PfCRT3D7 control)): 94 ± 4.4%; activity at 45000 µM ([5]; read-out: Uptake of [3H]CQ (% PfCRT3D7 control), trans-stimulation): 96 ± 3.5%; activity at 5000 µM ([5]; total [3H]CQ transport, [test solute]i = 5 mM (intracellular), mean ± SEM, SEM, read-out: Uptake of [3H]CQ (% PfCRTDd2 control), trans-stimulation, PfCRT3D7): 3.3 ± 0.05%; activity at 5000 µM ([6]; pH 5.5, read-out: PfCRT-mediated [3H]CQ transport, trans-stimulation (% PfCRTEcu1110 control), [test solute]i = 5 mM (intracellular), PfCRTEcu1110 oocytes, normalised to oocyte type control): 95 ± 3%; activity at 5000 µM ([6]; pH 5.5, read-out: Uptake of [3H]CQ (% PfCRTEcu1110 control), trans-stimulation, PfCRTEcu1110 oocytes, [test solute]i = 5 mM, total [3H]CQ transport, normalised to the oocyte type control): 97 ± 4.2%; activity at 45000 µM ([6]; pH 5.5, read-out: Uptake of [3H]CQ (% PfCRTEcu1110 control), trans-stimulation, PfCRTEcu1110 oocytes, [test solute]i = 45 mM (30 mM for some solutes due to solubility), total [3H]CQ transport, normalised to the oocyte type control): 100 ± 3.5%; activity at 5000 µM ([6]; read-out: Uptake of [3H]CQ (% PfCRTDd2 control), trans-stimulation, PfCRTEcu1110, total [3H]CQ transport, [test solute]i = 5 mM (intracellular), mean ± SEM, SEM): 35 ± 1.4%; activity at 45000 µM ([6]; read-out: Uptake of [3H]CQ (% PfCRTDd2 control), trans-stimulation, PfCRTEcu1110, total [3H]CQ transport, [test solute]i = 45 mM (intracellular; 30 mM for some solutes due to solubility), mean ± SEM, SEM): 36 ± 2.7%; activity at 5000 µM ([7]; pH 5.5, read-out: PfCRT-mediated [3H]CQ transport, trans-stimulation (% PfCRTDd2 control), [test solute]i = 5 mM (intracellular), PfCRTDd2 oocytes, normalised to oocyte type control): 97 ± 2.6%; activity at 5000 µM ([7]; pH 5.5, read-out: Uptake of [3H]CQ (% PfCRTDd2 control), trans-stimulation, PfCRTDd2, total [3H]CQ transport, [test solute]i = 5 mM (intracellular), mean ± SEM, SEM): 99 ± 3.2%; activity at 5000 µM ([7]; pH 5.5, read-out: Uptake of [3H]CQ (% PfCRTDd2 control), trans-stimulation, PfCRTDd2 oocytes, [test solute]i = 5 mM, total [3H]CQ transport, normalised to the oocyte type control): 99 ± 3.2%; activity at 45000 µM ([7]; pH 5.5, read-out: Uptake of [3H]CQ (% PfCRTDd2 control), trans-stimulation, PfCRTDd2 oocytes, total [3H]CQ transport, normalised to the oocyte type control): 101 ± 3.7%; activity at 5000 µM ([7]; pH 5.5, read-out: [3H]CQ transport (% PfCRTDd2 control), trans-stimulation, PfCRTDd2, trans-stimulation, [test solute]i = 5 mM (injected), PfCRT-mediated component (background subtracted), mean ± SEM, SEM): 97 ± 2.6%; activity at 45000 µM ([7]; pH 5.5, read-out: [3H]CQ transport (% PfCRTDd2 control), trans-stimulation, PfCRTDd2, trans-stimulation, PfCRT-mediated component (background subtracted), mean ± SEM, SEM): 99 ± 4.5%; inhibition at 500 µM ([8]; [test solute] = 0.5 mM): 2.1 ± 0.08%; inhibition at 1000 µM ([8]; [test solute] = 1 mM): 3.4 ± 0.01%; inhibition at 2000 µM ([8]; [test solute] = 2 mM): 2.3 ± 0.1%
